Laboratory results reported in patent US9586978B2, “Anti-viral compounds” (AbbVie Inc., priority 2009, dated 2017).

Columns and labels:
HCV genotype 1b = conditions: observed by Nettles et al.; read-out: EC50 against HCV genotype 1b; cited from earlier work
HCV genotype 3a = conditions: observed by Nettles et al.; read-out: EC50 against HCV genotype 3a; cited from earlier work
HCV genotype 1a = conditions: observed by Nettles et al.; read-out: EC50 against HCV genotype 1a; cited from earlier work
HCV genotype 4a = conditions: observed by Nettles et al.; read-out: EC50 against HCV genotype 4a; cited from earlier work
HCV genotype 5a = conditions: observed by Nettles et al.; read-out: EC50 against HCV genotype 5a; cited from earlier work
different HCV genotypes = conditions: summary over genotypes, see Nettles et al.; cited from earlier work
HCV genotype 1b replicon = HCV genotype 1b replicon assay; type: cell-based, Hepatitis C virus; conditions: Hepatitis C virus, 40% human plasma; Table 5; read-out: EC50 (nM, in the presence of 40% HP) 1b
Description: (§1) [drawing 14] employs a biphenyl linker between the imidazole moieties. See WO2008021927(BMS). The EC50 values of BMS-790052 against different HCV genotypes were shown by Nettles et al., “BMS-790052 is a First-in-class Potent Hepatitis C Virus (HCV) NS5A Inhibitor for Patients with Chronic HCV Infection: Results from a Proof-of-concept Study”, 59th Annual Meeting of the American Association for the Study of Liver Diseases (Oct. 31-Nov. 1, 2008, San Francisco, Calif.; www.natap.org/2008/AASLD/AASLD_06.htm). […] See also Gao et al., NATURE 465:96-100 (2010). The compounds in Table 1 use different linkers between the imidazole moieties. Table 1 depicts the EC50 values of these compounds when tested using respective replicon assays in the presence of 5% (v/v) fetal bovine serum (FBS).
(§2) Table 2 compares compounds containing unsubstituted benzimidazole to those containing halo-substituted benzimidazole. Anti-viral activities were assessed using wild-type replicons (e.g., 1b WT or 1a WT) as well as replicons containing specific NS5A mutations (e.g., 1b L28T, 1b Y93H, 1a L31V, 1a Y93C, 1a M28V, or 1a Q30E) in the absence of FBS.
(§3) Table 3 compares compounds with different linkers between the benzimidazole moieties. Anti-viral activities were determined using 1a and 1b replicon assays. “HP” refers to human plasma. […] As compared to the phenyl linker

[1] = test system: HCV 1b replicon containing NS5A mutation Y93H; assay: HCV 1b Y93H replicon assay; type: cell-based, Hepatitis C virus; conditions: transient transfection assays
Procedure: as §2

HCV genotype 4a replicon = HCV genotype 4a replicon assay; type: cell-based, Hepatitis C virus; conditions: Hepatitis C virus, absence of human plasma; Table 5; read-out: EC50 (nM, in the absence of HP) 4a
Description: as §1

HCV genotype 2b replicon = HCV genotype 2b replicon assay; type: cell-based, Hepatitis C virus; conditions: Hepatitis C virus, absence of human plasma; Table 5; read-out: EC50 (nM, in the absence of HP) 2b
Description: as §1

[2] = AUC value (as defined above); type: in vivo
HCV genotype 2a replicon = HCV genotype 2a replicon assay; type: cell-based, Hepatitis C virus; conditions: Hepatitis C virus, absence of human plasma; Table 5; read-out: EC50 (nM, in the absence of HP) 2a
Description: as §1

HCV genotype 1a replicon = HCV genotype 1a replicon assay; type: cell-based, Hepatitis C virus; conditions: Hepatitis C virus, 40% human plasma; Table 5; read-out: EC50 (nM, in the presence of 40% HP) 1a
Description: as §1, §2, §3

[3] = test system: HCV 2a, 2b, 3a and 4a replicon; assay: HCV 2a, 2b, 3a and 4a replicon assays in the absence of human plasma; type: cell-based; conditions: 3a and 4a replicons, absence of HP, versus Example 4.25
Procedure: The inhibitory effects of the compounds of the invention on HCV replication can be determined by measuring activity of the luciferase reporter gene. For example, replicon-containing cells can be seeded into 96 well plates at a density of 5000 cells per well in 100 μl DMEM containing 5% FBS. The following day compounds can be diluted in dimethyl sulfoxide (DMSO) to generate a 200× stock in a series of eight half-log dilutions. The dilution series can then be further diluted 100-fold in the medium containing 5% FBS. Medium with the inhibitor is added to the overnight cell culture plates already containing 100 μl of DMEM with 5% FBS. In assays measuring inhibitory activity in the presence of human plasma, the medium from the overnight cell culture plates can be replaced with DMEM containing 40% human plasma and 5% FBS. The cells can be incubated for three days in the tissue culture incubators after which time 30 μl of Passive Lysis buffer (Promega) can be added to each well, and then the plates are incubated for 15 minutes with rocking to lyse the cells. Luciferin solution (100 μl, Promega) can be added to each well, and luciferase activity can be measured with a Victor II luminometer (Perkin-Elmer). The percent inhibition of HCV RNA replication can be calculated for each compound concentration and the EC50 value can be calculated using nonlinear regression curve fitting to the 4-parameter logistic equation and GraphPad Prism 4 software.

HCV genotype 3a replicon = HCV genotype 3a replicon assay; type: cell-based, Hepatitis C virus; conditions: Hepatitis C virus, read-out: EC50 (nM, in the absence of HP) 3a, absence of human plasma; Table 5
Description: as §1

[4] = test system: HCV 1a replicon L31M, Y93H or Y93N mutant; assay: HCV 1a replicon assays in the presence of 40% HP, mutants; type: cell-based; conditions: versus Example 109 of the '301 application

COC(=O)N[C@H](C(=O)N1CCC[C@H]1c1ncc(-c2ccc(-c3ccc(-c4cnc([C@@H]5CCCN5C(=O)[C@@H](NC(=O)OC)C(C)C)[nH]4)cc3)cc2)[nH]1)C(C)C [BMS-790052]
EC50 (HCV genotype 1b): 9 pM | EC50 (HCV genotype 3a): 0.127 nM | EC50 (HCV genotype 1a): 0.05 nM | EC50 (HCV genotype 4a): 0.012 nM | EC50 (HCV genotype 5a): 0.033 nM | EC50 (different HCV genotypes): ≤ 0.2 nM

COC(=O)N[C@H](C(=O)N1CCC[C@H]1c1nc2cc([C@H]3CC[C@H](c4ccc5[nH]c([C@@H]6CCCN6C(=O)[C@@H](NC(=O)OC)C(C)C)nc5c4)N3c3cc(F)c(N4CCC(c5ccccc5)CC4)c(F)c3)ccc2[nH]1)C(C)C [Example 5.1, methyl{(2S)-1-[(2S)-2-{5-[(2R,5R)-1-[3,5-difluoro-4-(4-phenylpiperidin-1-yl)phenyl]-5-{2-[(2S)-1-{(2S)-2-[(methoxycarbonyl)amino]-3-methylbutanoyl}pyrrolidin-2-yl]-1H-benzimidazol-5-yl}pyrrolidin-2-yl]-1H-benzimidazol-2-yl}pyrrolidin-1-yl]-3-methyl-1-oxobutan-2-yl}carbamate]
EC50 (HCV genotype 1b replicon): 0.2 nM | EC50 fold less than that of Example 37 of US 2010/0317568 against the 1b Y93H variant [1]: at least 10 fold | EC50 (HCV genotype 4a replicon): ≤ 0.05 nM | EC50 (HCV genotype 2b replicon): ≤ 0.05 nM | AUC value, fold greater than that of Example 2.9 ([2]; versus Example 2.9): about 30 fold | EC50 (HCV genotype 2a replicon): ≤ 0.05 nM | EC50 (HCV genotype 1a replicon): 0.1 nM | EC50 values, fold less than those of Example 4.25 [3]: at least 50 fold | EC50 (HCV genotype 3a replicon): ≤ 0.05 nM

COC(=O)N[C@H](C(=O)N1CCC[C@H]1c1nc2cc([C@H]3CC[C@H](c4cc5[nH]c([C@@H]6CCCN6C(=O)[C@@H](NC(=O)OC)C(C)C)nc5cc4F)N3c3ccc(C(C)(C)C)cc3)c(F)cc2[nH]1)C(C)C [Example 6.1, methyl{(2S)-1-[(2S)-2-{5-[(2R,5R)-1-(4-tert-butylphenyl)-5-{5-fluoro-2-[(2S)-1-{(2S)-2-[(methoxycarbonyl)amino]-3-methylbutanoyl}pyrrolidin-2-yl]-1H-benzimidazol-6-yl}pyrrolidin-2-yl]-6-fluoro-1H-benzimidazol-2-yl}pyrrolidin-1-yl]-3-methyl-1-oxobutan-2-yl}carbamate]
EC50 value, fold less than that of Example 109 of the '301 application [4]: at least 5 fold | AUC value, fold greater than that of Example 109 of the '301 application ([2]; versus Example 109 of the '301 application): about 9 fold
